# Read-outs that look alike come from different tables or passages of the source. Square brackets hold non-standard residues; d marks the D form. Ends that are not written are not given here. Peptide text beside a SMILES is read from it.
# Assays:
# [1] = tested on: pancreatin; test: Protease resistance assay; format: in vitro ADME; conditions: increasing concentrations of pancreatin, highest ratio 400 pg/nmol; 2 h at 37° C.; MALDI-TOF
# Method: Protease resistance assay. The D(LPR) and RPL peptides were diluted to 500 μg/ml in PBS and incubated with increasing concentrations of pancreatin (Sigma-Aldrich, St. Louis, Mo.) for 2 h at 37° C. Samples were then analyzed by mass spectroscopy (MALDI-TOF).
# [2] = molecular target: T1, NRP-1 (Homo sapiens, UniProt O14786); test: Phage binding competition assay, immobilized NRP-1
# T1 construct: purchased R&D Systems (Minneapolis, Minn.)
# Method: (§1) Phage assay. Phage was prepared by infection of log-phase culture of E. coli K91kan, and overnight growth in Luria-Bertani (LB) media supplemented with kanamycin (100 μg/ml) and tetracyclin (20 μg/ml) at 37° C. and 250 rpm. Phage was precipiated from the media supernatant by the PEG/NaCl method, and phage titer determined by serial dilution and colony counting (Giordano, 2001). For the phage binding and competition assays, VEGFR-1, NRP-1 or BSA (10 μg/ml in PBS) was immobilized on microtiter wells overnight at 4° C. Wells were washed twice, blocked with PBS 3% BSA for 2 h at room temperature and incubated with 10^9 TU of CPQPRPLC or negative control insertless (Fd-tet) phage in PBS 3% BSA. After 1 h at room temperature, wells were washed 10 times with PBS and phage bound to the immobilized receptors recovered by bacterial infection (Giordano, 2001).
# [3] = molecular target: T2, VEGFR-1 (Homo sapiens, UniProt P17948); test: Phage binding competition assay, immobilized VEGFR-1
# T2 construct: purchased R&D Systems (Minneapolis, Minn.)
# Method: as §1
# [4] = tested on: white fat; conditions: previous studies of the inventors; cited from earlier work
# [5] = Weight loss in diet-induced obese mice; format: in vivo, mouse
# Text: The present inventors thus carried out studies to assess the ability of the LPR VEGFR-1 targeting peptides of the present invention to target fat tissue and thereby reduce weight in diet-induced obese mice. To this end, diet-induced obese mice were divided in groups and treated with the VEGFR-1/NRP-1 targeting peptide. C57BL/6 ]-60% DIO mice (36-weeks old) were purchased from The Jackson Laboratory. These animals were fed on a high calorie diet (J-60%) to produce a diet-induced obesity (DIO) phenotype. Animals were divided in groups and treated daily with: [Group 1]D(CLPRC) (SEQ ID NO:7) (N=5); [Group 2] CKGGRAKDC-GG-D(KLAKLAK)2 (SEQ ID NO:9) (N=3); [Group 3]D(CLPRC) combined with CKGGRAKDC-GG-D(KLAKLAK)2 (SEQ ID NO:10) (N=4); [Group 4] vehicle only (N=4). All animals were hydrated by intraperitoneally administration of 1 ml of saline solution (0.9% sodium chloride solution, USP quality) 30 minutes prior to treatment. Mice were treated daily with D(CLPRC) dissolved in phosphate buffered saline vehicle (PBS) (100 μl total injection) at a 50 mg/Kg/body weight dose (Groups 1 and 3); CKGGRAKDC-GG-D(KLAKLAK)2 (SEQ ID NO:9) in PBS was administered by subcutaneously (100 total volume) at 3 mg/Kg (Group 2) or at 1 mg/Kg when in combination with D(CLPRC) (Group 3) 5 days a week (Monday thru Friday). Mice were weighted once a week.
# [6] = molecular target: T2, VEGFR-1; conditions: Giordano et al., 2001; read-out: IC50 previously described for VEGFR-1; cited from earlier work
# [7] = molecular target: T1, NRP-1; conditions: Giordano et al., 2001; read-out: IC50 previously described for NRP-1; cited from earlier work
# [8] = tested on: EF43.fgf4 derived tumors; test: Tumor growth, EF43.fgf4 breast cancer model; format: in vivo, mouse
# Method: Tumor growth. The EF43.fgf4 cells were cultured in Dulbelco's modified Eegles medium supplemented with fetal bovine serum, glutamine and antibiotics. Cells were harvested before reaching confluence and injected subcutaneously in the mammary fatpad of Balb/c mice. Mier 10 days, tumor reached ˜50-80 mm^3 and were then separated into four groups with seven animals (N=7). Animals in each group were treated with either vehicle only (phosphate saline buffered solution) or with control peptide D(CAPAC) (SEQ ID NO:6) or D(LPR) (at 50 mg/Kg) or with the cyclic version D(CLPRC) (SEQ ID NO:7) (at 25 mg/Kg). Tumor volume was calculated by measuring the length of the long (L) and the short (S) sides of each tumor (V=S^2×L×[…]).
# Statistical analysis. For the in vivo experiments, statistical significance of the difference was computed by Kruskal-Wallis test (non parametric one factor ANOVA method) with p<0.05 for each treatment day. […] Multiple comparisons were adjusted by Bejamini & Hochberg method. All the statistical analysis was computed using The R (Version 2.4.1) Project for Statistical Computing.
# [9] = fat-zapper alone, 3 mg/Kg subcutaneously, obese mice
# [10] = obese C57BL/6 mice, 50 mg/Kg daily intraperitoneally, over the treatment period
# T1 sequence (O14786 22-923): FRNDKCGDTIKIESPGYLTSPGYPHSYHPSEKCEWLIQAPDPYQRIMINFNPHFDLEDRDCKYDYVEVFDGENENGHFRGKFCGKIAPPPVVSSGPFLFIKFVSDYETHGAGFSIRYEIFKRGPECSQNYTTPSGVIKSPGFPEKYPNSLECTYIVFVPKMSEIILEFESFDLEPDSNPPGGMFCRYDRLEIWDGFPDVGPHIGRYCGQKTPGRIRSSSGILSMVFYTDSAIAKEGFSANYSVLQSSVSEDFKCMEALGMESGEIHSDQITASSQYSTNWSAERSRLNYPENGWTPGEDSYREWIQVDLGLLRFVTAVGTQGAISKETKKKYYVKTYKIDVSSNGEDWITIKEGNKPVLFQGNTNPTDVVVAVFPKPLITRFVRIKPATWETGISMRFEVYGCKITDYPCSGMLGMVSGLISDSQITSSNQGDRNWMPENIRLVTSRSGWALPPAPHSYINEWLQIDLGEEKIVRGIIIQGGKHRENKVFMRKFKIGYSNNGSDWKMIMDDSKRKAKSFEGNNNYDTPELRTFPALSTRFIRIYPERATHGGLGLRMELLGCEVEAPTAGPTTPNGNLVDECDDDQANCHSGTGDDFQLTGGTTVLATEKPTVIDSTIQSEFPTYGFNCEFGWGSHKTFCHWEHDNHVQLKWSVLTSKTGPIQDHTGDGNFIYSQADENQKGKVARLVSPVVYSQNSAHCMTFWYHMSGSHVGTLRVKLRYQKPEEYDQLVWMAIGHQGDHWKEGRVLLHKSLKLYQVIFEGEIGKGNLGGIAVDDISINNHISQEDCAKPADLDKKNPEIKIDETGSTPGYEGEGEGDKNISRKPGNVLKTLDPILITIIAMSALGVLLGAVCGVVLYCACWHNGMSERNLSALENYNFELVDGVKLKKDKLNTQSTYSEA
# T2 sequence (P17948 27-1338, species assumed): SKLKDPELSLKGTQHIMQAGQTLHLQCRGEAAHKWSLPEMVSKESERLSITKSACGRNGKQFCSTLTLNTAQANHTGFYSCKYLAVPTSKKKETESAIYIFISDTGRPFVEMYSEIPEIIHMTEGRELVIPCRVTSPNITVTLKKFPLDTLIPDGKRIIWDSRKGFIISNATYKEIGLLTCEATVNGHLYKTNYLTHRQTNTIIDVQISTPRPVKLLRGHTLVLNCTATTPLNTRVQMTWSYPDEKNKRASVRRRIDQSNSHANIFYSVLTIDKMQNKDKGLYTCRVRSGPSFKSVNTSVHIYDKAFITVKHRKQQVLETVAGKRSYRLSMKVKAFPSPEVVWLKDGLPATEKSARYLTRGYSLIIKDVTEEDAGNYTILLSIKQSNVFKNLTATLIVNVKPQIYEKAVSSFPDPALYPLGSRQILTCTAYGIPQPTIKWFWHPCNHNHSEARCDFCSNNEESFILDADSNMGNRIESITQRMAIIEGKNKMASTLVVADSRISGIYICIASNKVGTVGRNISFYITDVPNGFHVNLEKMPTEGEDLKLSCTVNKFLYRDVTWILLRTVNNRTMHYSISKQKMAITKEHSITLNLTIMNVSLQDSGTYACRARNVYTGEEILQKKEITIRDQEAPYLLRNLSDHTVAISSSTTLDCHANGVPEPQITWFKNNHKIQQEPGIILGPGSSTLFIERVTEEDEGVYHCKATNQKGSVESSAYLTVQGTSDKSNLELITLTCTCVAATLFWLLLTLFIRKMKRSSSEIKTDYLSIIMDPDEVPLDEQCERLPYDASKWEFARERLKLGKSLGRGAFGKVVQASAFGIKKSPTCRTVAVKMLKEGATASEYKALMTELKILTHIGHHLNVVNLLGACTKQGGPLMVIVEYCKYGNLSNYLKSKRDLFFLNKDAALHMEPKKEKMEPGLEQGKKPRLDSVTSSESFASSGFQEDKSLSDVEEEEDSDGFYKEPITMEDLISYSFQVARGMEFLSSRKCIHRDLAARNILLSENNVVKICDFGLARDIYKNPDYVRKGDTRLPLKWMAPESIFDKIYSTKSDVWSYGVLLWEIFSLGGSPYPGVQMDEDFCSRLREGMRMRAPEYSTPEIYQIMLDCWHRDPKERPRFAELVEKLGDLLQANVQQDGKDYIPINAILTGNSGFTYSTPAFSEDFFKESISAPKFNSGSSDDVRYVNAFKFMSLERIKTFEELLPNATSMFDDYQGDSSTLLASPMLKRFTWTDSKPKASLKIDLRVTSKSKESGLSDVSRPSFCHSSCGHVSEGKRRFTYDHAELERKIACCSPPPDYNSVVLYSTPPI
compound,measurement,setting,value
"CC(C)C[C@@H](N)C(=O)N1CCC[C@@H]1C(=O)N[C@H](CCCNC(=N)N)C(=O)O [D(LPR), D-Leu-D-Pro-D-Arg] (H-[dL]-[dP]-[dR]-OH)",proteolytic degradation by pancreatin (breakdown products by mass spectroscopy),[1],No breakdown products were observed
same,IC50,[2],0.001 to 0.01 nM
same,IC50,[3],0.001 to 0.01 nM
"CC(C)C[C@H](NC(=O)[C@@H]1CCCN1C(=O)[C@@H](N)CCCNC(=N)N)C(=O)O [RPL, L-Arg-L-Pro-L-Leu, reference compound] (H-Arg-Pro-Leu-OH)",proteolytic degradation by pancreatin (breakdown products by mass spectroscopy),[1],marked degradation
"CKGGRAKDC-GG-D(KLAKLAK)2 (CKGGRAKDCGG[dK][dL][dA][dK][dL][dA][dK][dK][dL][dA][dK][dL][dA][dK]; cysteine pairing not given here) [fat-zapper, homing peptide … conjugated to the proapoptotic peptide D(KLAKLAK)2, reference compound]",therapeutic dose that induces fat ablation,[4],≥ 3 mg/Kg/body weight
same,weight loss,[5]; [9],about 10 grams
same,"weight loss, % body weight",[5]; [9],20 % body weight
CPQPRPLC,IC50,[6],~1 nM
same,IC50,[7],50 to 100 nM
"D(Cys Leu Pro Arg Cys) ([dC][dL][dP][dR][dC]; also: cyclic, ring type not given here) [D(CLPRC)]",effect on tumor volume,"[8]; 25 mg/Kg daily, Balb/c mice",significant reduction in tumor volume
same,effect on tumor volume (FIG. 3 legend),"[8]; legend: 50 mg/Kg daily, after five days of treatment, compared to control animals",reduced tumor volume
same,weight loss,[5]; [10],about 3 grams
same,"weight loss, % of body weight",[5]; [10],approx. 6 % of body weight

# Source: patent US20120028880A1, “VEGFR-1/NRP-1 TARGETING PEPTIDES” (priority 2007, published 2012)
